Experimental data taken from PubChem BioAssay (NCI).
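These data come from cells grown in 96-well plates and exposed to compound for 48 hours at five concentrations. TGI is the concentration that stops growth completely.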

What was measured:
Experiment in all cases: DTP human tumour cell line panel, 48 h
A498 renal = test system: A498 renal
HL-60(TB) leukemia = test system: HL-60(TB) leukemia
HCT-116 colon = test system: HCT-116 colon
SK-MEL-5 melanoma = test system: SK-MEL-5 melanoma
OVCAR-4 ovarian = test system: OVCAR-4 ovarian
HOP-92 NSCLC = test system: HOP-92 NSCLC
MOLT-4 leukemia = test system: MOLT-4 leukemia
RPMI-8226 leukemia = test system: RPMI-8226 leukemia
CAKI-1 renal = test system: CAKI-1 renal
UO-31 renal = test system: UO-31 renal

## COCCc1c(C)c(C#N)c2n(C)c3ccccc3n2c1=O
A498 renal
  TGI: > 10 µM
HL-60(TB) leukemia
  TGI: > 10 µM
HCT-116 colon
  TGI: > 10 µM
SK-MEL-5 melanoma
  TGI: > 10 µM
OVCAR-4 ovarian
  TGI: > 10 µM
HOP-92 NSCLC
  TGI: > 10 µM
MOLT-4 leukemia
  TGI: > 10 µM
RPMI-8226 leukemia
  TGI: > 10 µM
CAKI-1 renal
  TGI: > 10 µM

## O=C1CCc2c3c(c4c([nH]c5ccccc54)c2CC1)C(=O)NC3=O
A498 renal
  TGI: 13.5 µM
HL-60(TB) leukemia
  TGI: 17.2 µM
HCT-116 colon
  TGI: > 100 µM
SK-MEL-5 melanoma
  TGI: 5.77 µM
OVCAR-4 ovarian
  TGI: 13.1 µM
HOP-92 NSCLC
  TGI: 82 µM
MOLT-4 leukemia
  TGI: 4.05 µM
UO-31 renal
  TGI: 14.7 µM
RPMI-8226 leukemia
  TGI: 64.1 µM
CAKI-1 renal
  TGI: 21.2 µM

## CCN(CC)CC(O)c1ccc2ccc3ccccc3c2c1 (configuration not stated)
A498 renal
  TGI: 26.3 µM
HL-60(TB) leukemia
  TGI: 30.1 µM
HCT-116 colon
  TGI: 29.5 µM
SK-MEL-5 melanoma
  TGI: 27.3 µM
OVCAR-4 ovarian
  TGI: 35.3 µM
HOP-92 NSCLC
  TGI: 31.3 µM
MOLT-4 leukemia
  TGI: 32.9 µM
UO-31 renal
  TGI: 24.1 µM
RPMI-8226 leukemia
  TGI: 38.2 µM
CAKI-1 renal
  TGI: 26.6 µM

## CCN(CC)CCN1c2ccccc2Sc2ccc3ccccc3c21
A498 renal
  TGI: 24.7 µM
HL-60(TB) leukemia
  TGI: 15.1 µM
HCT-116 colon
  TGI: 22.9 µM
SK-MEL-5 melanoma
  TGI: 10.2 µM
OVCAR-4 ovarian
  TGI: 17 µM
HOP-92 NSCLC
  TGI: 12.8 µM
MOLT-4 leukemia
  TGI: 7.66 µM
UO-31 renal
  TGI: 19.1 µM
RPMI-8226 leukemia
  TGI: 10.7 µM
CAKI-1 renal
  TGI: 22.7 µM

## COc1cc(/C=C2\C(=O)N(c3cccc(Cl)c3)C(c3ccccc3)S2(=O)=O)cc(OC)c1OC (configuration not stated)
A498 renal
  TGI: > 100 µM
HL-60(TB) leukemia
  TGI: > 100 µM
HCT-116 colon
  TGI: > 100 µM
SK-MEL-5 melanoma
  TGI: > 100 µM
OVCAR-4 ovarian
  TGI: > 100 µM
HOP-92 NSCLC
  TGI: > 100 µM
MOLT-4 leukemia
  TGI: 98.8 µM
UO-31 renal
  TGI: > 100 µM
RPMI-8226 leukemia
  TGI: 80.1 µM
CAKI-1 renal
  TGI: > 100 µM

## CCCCC1Cc2cc(O)ccc2-c2n1c1cc(O)ccc1[n+]2C (configuration not stated) (tested in a mixture with another compound)
A498 renal
  TGI: > 100 µM
HL-60(TB) leukemia
  TGI: > 86.4 µM
HCT-116 colon
  TGI: > 100 µM
SK-MEL-5 melanoma
  TGI: 22 µM
OVCAR-4 ovarian
  TGI: 97.6 µM
HOP-92 NSCLC
  TGI: 73.8 µM
MOLT-4 leukemia
  TGI: > 100 µM
UO-31 renal
  TGI: > 100 µM
RPMI-8226 leukemia
  TGI: 75.1 µM
CAKI-1 renal
  TGI: > 100 µM

## C/C(Cl)=N\OC(=O)Nc1ccc([N+](=O)[O-])cc1
A498 renal
  TGI: 30.5 µM
HL-60(TB) leukemia
  TGI: 4.09 µM
HCT-116 colon
  TGI: 22.2 µM
SK-MEL-5 melanoma
  TGI: 31.2 µM
OVCAR-4 ovarian
  TGI: 28.2 µM
HOP-92 NSCLC
  TGI: 5.65 µM
MOLT-4 leukemia
  TGI: 3.97 µM
UO-31 renal
  TGI: 11.4 µM
CAKI-1 renal
  TGI: 9.79 µM

## NS(=O)(=O)c1nnc(NC(=O)CCC(=O)O)s1
A498 renal
  TGI: > 100 µM
HL-60(TB) leukemia
  TGI: > 100 µM
HCT-116 colon
  TGI: > 100 µM
SK-MEL-5 melanoma
  TGI: > 100 µM
OVCAR-4 ovarian
  TGI: > 100 µM
HOP-92 NSCLC
  TGI: > 100 µM
MOLT-4 leukemia
  TGI: > 100 µM
UO-31 renal
  TGI: > 100 µM
RPMI-8226 leukemia
  TGI: > 100 µM
CAKI-1 renal
  TGI: > 100 µM

## C1CNCCN2CCCNCCN(C1)CC2
A498 renal
  TGI: > 100 µM
HCT-116 colon
  TGI: > 100 µM
SK-MEL-5 melanoma
  TGI: > 100 µM
OVCAR-4 ovarian
  TGI: > 100 µM
HOP-92 NSCLC
  TGI: > 100 µM
MOLT-4 leukemia
  TGI: > 100 µM
UO-31 renal
  TGI: > 100 µM
RPMI-8226 leukemia
  TGI: > 100 µM
CAKI-1 renal
  TGI: > 100 µM

## CSC1=N/C(=C\c2cccs2)C(=O)N1CN1CCOCC1
A498 renal
  TGI: > 100 µM
HL-60(TB) leukemia
  TGI: > 100 µM
HCT-116 colon
  TGI: > 100 µM
SK-MEL-5 melanoma
  TGI: > 100 µM
OVCAR-4 ovarian
  TGI: 86.7 µM
HOP-92 NSCLC
  TGI: 94.3 µM
MOLT-4 leukemia
  TGI: > 100 µM
UO-31 renal
  TGI: > 100 µM
RPMI-8226 leukemia
  TGI: > 100 µM

## NCCCNCCSSCc1ccccc1CSSCCNCCCN
A498 renal
  TGI: > 100 µM
HL-60(TB) leukemia
  TGI: 29.8 µM
SK-MEL-5 melanoma
  TGI: > 100 µM
OVCAR-4 ovarian
  TGI: > 100 µM
HOP-92 NSCLC
  TGI: 87.9 µM
MOLT-4 leukemia
  TGI: > 100 µM
UO-31 renal
  TGI: > 100 µM
RPMI-8226 leukemia
  TGI: > 100 µM
CAKI-1 renal
  TGI: > 100 µM

## COC(=O)N1CC[C@@H]2CCC=C(c3cccc4c3OCO4)[C@@H]21
A498 renal
  TGI: > 100 µM
HL-60(TB) leukemia
  TGI: > 100 µM
HCT-116 colon
  TGI: > 100 µM
SK-MEL-5 melanoma
  TGI: > 100 µM
OVCAR-4 ovarian
  TGI: > 100 µM
HOP-92 NSCLC
  TGI: > 100 µM
MOLT-4 leukemia
  TGI: > 100 µM
UO-31 renal
  TGI: > 100 µM
CAKI-1 renal
  TGI: > 100 µM

## COc1ccc2c(c1)/C(=C(\C(Cl)=C(Cl)Cl)[N+](=O)[O-])N2
A498 renal
  TGI: > 100 µM
HL-60(TB) leukemia
  TGI: > 100 µM
HCT-116 colon
  TGI: > 100 µM
SK-MEL-5 melanoma
  TGI: > 100 µM
OVCAR-4 ovarian
  TGI: > 100 µM
HOP-92 NSCLC
  TGI: > 100 µM
MOLT-4 leukemia
  TGI: 97.1 µM
UO-31 renal
  TGI: > 100 µM
CAKI-1 renal
  TGI: > 100 µM

## C=C1CC(OC(C)=O)/C=C(/C)CCC(C(C)(C)O)CC1O (configuration not stated)
A498 renal
  TGI: > 100 µM
HL-60(TB) leukemia
  TGI: > 100 µM
HCT-116 colon
  TGI: > 100 µM
SK-MEL-5 melanoma
  TGI: > 100 µM
OVCAR-4 ovarian
  TGI: > 100 µM
HOP-92 NSCLC
  TGI: > 100 µM
MOLT-4 leukemia
  TGI: > 100 µM
UO-31 renal
  TGI: > 100 µM
CAKI-1 renal
  TGI: > 100 µM

## CN1CCc2c(sc3nc(Nc4ccccc4)n(N)c(=O)c23)C1
A498 renal
  TGI: > 100 µM
HL-60(TB) leukemia
  TGI: > 100 µM
HCT-116 colon
  TGI: > 100 µM
SK-MEL-5 melanoma
  TGI: > 100 µM
MOLT-4 leukemia
  TGI: > 100 µM
UO-31 renal
  TGI: > 100 µM
RPMI-8226 leukemia
  TGI: > 100 µM
CAKI-1 renal
  TGI: > 100 µM

## CN(C)C(=S)Nc1nnc(NC23CC4CC(CC(C4)C2)C3)s1
A498 renal
  TGI: 37.3 µM
HL-60(TB) leukemia
  TGI: 31.9 µM
HCT-116 colon
  TGI: 33 µM
OVCAR-4 ovarian
  TGI: 32.4 µM
MOLT-4 leukemia
  TGI: > 100 µM
UO-31 renal
  TGI: 25.2 µM
RPMI-8226 leukemia
  TGI: 51.1 µM
CAKI-1 renal
  TGI: 68.8 µM

## COc1ccc(C2CCc3nc4nc(N)nc(N)c4cc3C2)cc1 (configuration not stated)
A498 renal
  TGI: 77.1 µM
HL-60(TB) leukemia
  TGI: > 100 µM
HCT-116 colon
  TGI: > 100 µM
SK-MEL-5 melanoma
  TGI: > 100 µM
OVCAR-4 ovarian
  TGI: 67.4 µM
HOP-92 NSCLC
  TGI: 9.31 µM
MOLT-4 leukemia
  TGI: 65.3 µM
RPMI-8226 leukemia
  TGI: > 100 µM
CAKI-1 renal
  TGI: > 100 µM

## Cc1ccc2nc3c(C(=O)NCCN(C)C)cccc3cc2c1
A498 renal
  TGI: 3.4 µM
HL-60(TB) leukemia
  TGI: 3.72 µM
HCT-116 colon
  TGI: 6.71 µM
SK-MEL-5 melanoma
  TGI: 3.41 µM
HOP-92 NSCLC
  TGI: 5.08 µM
UO-31 renal
  TGI: 2.96 µM
RPMI-8226 leukemia
  TGI: 7.12 µM

## NNC(N)=Nc1cccc2ccccc12
A498 renal
  TGI: > 100 µM
HL-60(TB) leukemia
  TGI: > 100 µM
HCT-116 colon
  TGI: > 100 µM
SK-MEL-5 melanoma
  TGI: > 100 µM
OVCAR-4 ovarian
  TGI: > 100 µM
HOP-92 NSCLC
  TGI: 92.4 µM
MOLT-4 leukemia
  TGI: > 100 µM
UO-31 renal
  TGI: > 100 µM
RPMI-8226 leukemia
  TGI: > 100 µM

## O=C(CSc1nc2ccc(I)cc2c(=O)n1Cc1ccccc1)N/N=C/c1ccccc1
A498 renal
  TGI: 43.7 µM
HL-60(TB) leukemia
  TGI: > 100 µM
HCT-116 colon
  TGI: > 100 µM
SK-MEL-5 melanoma
  TGI: > 100 µM
OVCAR-4 ovarian
  TGI: > 100 µM
HOP-92 NSCLC
  TGI: 34 µM
MOLT-4 leukemia
  TGI: > 100 µM
RPMI-8226 leukemia
  TGI: > 100 µM
CAKI-1 renal
  TGI: 23 µM

## C/C(CC(O)(C(F)(F)F)C(F)(F)F)=N\N
A498 renal
  TGI: > 10 µM
HL-60(TB) leukemia
  TGI: > 10 µM
HCT-116 colon
  TGI: > 10 µM
SK-MEL-5 melanoma
  TGI: > 10 µM
OVCAR-4 ovarian
  TGI: > 10 µM
HOP-92 NSCLC
  TGI: > 10 µM
MOLT-4 leukemia
  TGI: > 10 µM
RPMI-8226 leukemia
  TGI: > 10 µM
CAKI-1 renal
  TGI: > 10 µM

## COc1cc(N=C(N)N=C(N)N)c2ncccc2c1
A498 renal
  TGI: > 100 µM
HCT-116 colon
  TGI: > 100 µM
SK-MEL-5 melanoma
  TGI: > 100 µM
OVCAR-4 ovarian
  TGI: > 100 µM
HOP-92 NSCLC
  TGI: > 100 µM
UO-31 renal
  TGI: > 100 µM
CAKI-1 renal
  TGI: > 100 µM

## O=C(CC(=O)c1ccncc1)c1ccccc1
A498 renal
  TGI: > 100 µM
HCT-116 colon
  TGI: > 100 µM
SK-MEL-5 melanoma
  TGI: > 100 µM
OVCAR-4 ovarian
  TGI: > 100 µM
HOP-92 NSCLC
  TGI: > 100 µM
MOLT-4 leukemia
  TGI: > 100 µM
UO-31 renal
  TGI: > 100 µM
RPMI-8226 leukemia
  TGI: > 100 µM
CAKI-1 renal
  TGI: > 100 µM
